Results as given in patent US20200223837A1, “BENZOFURAN AMIDES AND HETEROAROMATIC ANALOGUES THEREOF FOR USE IN THERAPY” (European Molecular Biology Laboratory, priority 2017, published 2020).

The molecules below were run on EGR1 promoter (assay: EGR1 reporter assay (luciferase) in genomically engineered HeLa cell line). Settings: Homo sapiens; EGR1 reporter HeLa cells, luciferase activity after 24 hours with compound.
Assay type: cell-based
Text: The compounds of the present invention can be characterized for their effect on expression of egr1 (early growth response protein 1) using an EGR1 reporter cell line.
The HeLa cell line was genetically modified to provide a simple, robust and highly reproducible cell-based assay reporting the activity of an endogenous EGR1 promoter. In brief, a construct encoding EGFP and luciferase proteins, separated by a self-cleaving P2A peptide was inserted, using CRISPR, immediately downstream (3′) to the promoter of endogenous EGR1. Upon treatment with compounds, cells express EGFP and luciferase from EGR1 promoter, which can be readily detected either in live cells using microscopy or cytometry, or through detection of luciferase activity in cell lysates.
To achieve stable genomic integration of an EGR1-promoter dual reporter, two plasmids were generated: one contained the reporter construct (eGFP-P2A-luciferase) flanked by homology arms that direct insertion into genomic DNA, by homologous recombination, of a break in genomic DNA generated by guide RNA targeted cleavage by Cas9 endonuclease. The gRNA expressing plasmid was based on px330 (56), into which a gRNA sequence that targets a break in gDNA close to the start codon of EGR1 was cloned. The left homology arm (encoding part of EGR1 promoter adjacent to its start codon) and right homology arm (encoding […] of start codon of EGR1) were cloned from gDNA using the following primers: […]
The present compounds can be tested, e.g. by using a HeLa cell line carrying an EGR1 reporter construct which allows for expression of luciferase and eGFP (enhanced GFP) controlled by the EGR1 promoter. For this reporter cells are seeded in the wells of a 384 well microtiter plate at a density of 2000 cells per well in 48 μl of DMEM supplemented with 4.5 g/l glucose, 2 mM glutamine and 10% FCS and are incubated for 24 hours at 37° C. with 5% CO2 and 95% humidity. Then, an eleven point 1:3 serial dilution of each test compound, from an initial concentration of 100 μM, is prepared in DMSO and the dilutions are added to the cells in a volume of 2 μl per well. The cells are incubated for a further 24 hours, after which the luciferase activity of each well is determined by addition of 25 μl of luciferase substrate reaction mixture (Britelite™ plus, Perkin Elmer) and measuring the bioluminescence light output (EnVision Xcite plate reader, PerkinElmer).
The compound of example 64 served as a positive control for this EGR1 reporter assay. The compound of example 64 had been identified in an initial high throughput screening campaign.

SMILES | EC50
CC(=O)NCc1ccc(-c2csc(NC(=O)Cc3coc4cc(C)c(C(C)C)cc34)n2)o1 [Example 1, N-[4-[5-(Acetamidomethyl)-2-furyl]thiazol-2-yl]-2-(5-isopropyl-6-methyl-benzofuran-3-yl)acetamide] | 10 to 100 µM
CCc1ccc2c(CC(=O)Nc3nc(-c4ccccn4)cs3)coc2c1 [Example 5, 2-(6-Ethylbenzofuran-3-yl)-N-[4-(2-pyridyl)thiazol-2-yl]acetamide] | 10 to 100 µM
O=C(Cc1coc2ccccc12)Nc1ncc(C(F)(F)F)s1 [Example 6, 2-(Benzofuran-3-yl)-N-[5-(trifluoromethyl)thiazol-2-yl]acetamide] | 10 to 100 µM
COc1ccc2c(CC(=O)Nc3nc(-c4ccc(CNC(C)=O)o4)cs3)coc2c1 [Example 8, N-[4-[5-(Acetamidomethyl)-2-furyl]thiazol-2-yl]-2-(6-methoxybenzofuran-3-yl)acetamide] | 10 to 100 µM
Cc1cnc(NC(=O)Cc2coc3c(C)cccc23)s1 [Example 10, 2-(7-Methylbenzofuran-3-yl)-N-(5-methylthiazol-2-yl)acetamide] | 10 to 100 µM
COc1ccc(OC)c(-c2csc(NC(=O)Cc3coc4cc(C)ccc34)n2)c1 [Example 11, N-[4-(2,5-Dimethoxyphenyl)thiazol-2-yl]-2-(6-methylbenzofuran-3-yl)acetamide] | 10 to 100 µM
COc1ccc(OC)c(-c2csc(NC(=O)Cc3coc4cc(OC)ccc34)n2)c1 [Example 14, N-[4-(2,5-Dimethoxyphenyl)thiazol-2-yl]-2-(6-methoxybenzofuran-3-yl)acetamide] | 10 to 100 µM
Cc1cc2occ(CC(=O)N(c3ccc(F)cc3)c3nc4ccccc4s3)c2cc1C(C)C [Example 16, N-(1,3-Benzothiazol-2-yl)-N-(4-fluorophenyl)-2-(5-isopropyl-6-methyl-benzofuran-3-yl)acetamide] | 10 to 100 µM
Cc1ccc2c(CC(=O)Nc3nc(-c4ccccn4)cs3)coc2c1 [Example 21, 2-(6-Methylbenzofuran-3-yl)-N-[4-(2-pyridyl)thiazol-2-yl]acetamide] | 10 to 100 µM
Cc1cnc(NC(=O)Cc2coc3c(C)c(C)ccc23)[nH]1 [Example 22, 2-(6,7-Dimethylbenzofuran-3-yl)-N-(5-methyl-1H-imidazol-2-yl)acetamide] | 10 to 100 µM
COc1ccc2c(CC(=O)Nc3nc(-c4ccncc4)cs3)coc2c1 [Example 25, 2-(6-Methoxybenzofuran-3-yl)-N-[4-(4-pyridyl)thiazol-2-yl]acetamide] | 0.01 to 10 µM
COc1ccc2c(CC(=O)Nc3nc(-c4ccccn4)cs3)coc2c1 [Example 26, 2-(6-Methoxybenzofuran-3-yl)-N-[4-(2-pyridyl)thiazol-2-yl]acetamide] | 0.01 to 10 µM
Cc1ccc2c(CC(=O)Nc3nc(-c4cccs4)cs3)coc2c1 [Example 27, 2-(6-Methylbenzofuran-3-yl)-N-[4-(2-thienyl)thiazol-2-yl]acetamide] | 0.01 to 10 µM
CC(=O)NCCc1ccc(-c2csc(NC(=O)Cc3coc4cc(C)ccc34)n2)s1 [Example 28, N-[4-[5-(2-Acetamidoethyl)-2-thienyl]thiazol-2-yl]-2-(6-methylbenzofuran-3-yl)acetamide] | 0.01 to 10 µM
CCc1ccc2c(CC(=O)Nc3nc(-c4ccc(CNC(C)=O)cc4)cs3)coc2c1 [Example 30, N-[4-[4-(Acetamidomethyl)phenyl]thiazol-2-yl]-2-(6-ethylbenzofuran-3-yl)acetamide] | 0.01 to 10 µM
Cc1ccc2c(CC(=O)Nc3nc(-c4ccncc4)cs3)coc2c1 [Example 31, 2-(6-Methylbenzofuran-3-yl)-N-[4-(4-pyridyl)thiazol-2-yl]acetamide] | 0.01 to 10 µM
COc1ccc2c(CC(=O)Nc3nc(-c4cccs4)cs3)coc2c1 [Example 37, 2-(6-Methoxybenzofuran-3-yl)-N-[4-(2-thienyl)thiazol-2-yl]acetamide] | 0.01 to 10 µM
O=C(Cc1coc2c(F)c(F)ccc12)Nc1ncc(C(F)(F)F)s1 [Example 39, 2-(6,7-Difluorobenzofuran-3-yl)-N-[5-(trifluoromethyl)thiazol-2-yl]acetamide] | 0.01 to 10 µM

Continued, values first:

EC50 | SMILES
10 to 100 µM | COc1ccc2c(CC(=O)Nc3nccs3)coc2c1 [Example 2, 2-(6-Methoxybenzofuran-3-yl)-N-thiazol-2-yl-acetamide]
10 to 100 µM | Cn1ccc(NC(=O)Cc2coc3cc4c(cc23)CCC4)n1 [Example 3, 2-(6,7-Dihydro-5H-cyclopenta[f]benzofuran-3-yl)-N-(1-methylpyrazol-3-yl)acetamide]
10 to 100 µM | Cc1ccc2occ(CC(=O)Nc3ncc(C(F)(F)F)s3)c2c1 [Example 4, 2-(5-Methylbenzofuran-3-yl)-N-[5-(trifluoromethyl)thiazol-2-yl]acetamide]
10 to 100 µM | COc1ccc2c(CC(=O)Nc3nc(CC(N)=O)cs3)coc2c1 [Example 7, N-[4-(2-Amino-2-oxo-ethyl)thiazol-2-yl]-2-(6-methoxybenzofuran-3-yl)acetamide]
10 to 100 µM | Cc1cc2occ(CC(=O)Nc3nc(-c4ccccn4)cs3)c2cc1C [Example 9, 2-(5,6-Dimethylbenzofuran-3-yl)-N-[4-(2-pyridyl)thiazol-2-yl]acetamide]
10 to 100 µM | COc1ccc2c(CC(=O)Nc3nc(C)cs3)coc2c1 [Example 12, 2-(6-Methoxybenzofuran-3-yl)-N-(4-methylthiazol-2-yl)acetamide]
10 to 100 µM | CCOC(=O)c1csc(NC(=O)Cc2coc3cc(C)ccc23)n1 [Example 13, Ethyl 2-[[2-(6-methylbenzofuran-3-yl)acetyl]amino]thiazole-4-carboxylate]
10 to 100 µM | Cc1cnc(NC(=O)Cc2coc3cc(Cl)ccc23)s1 [Example 15, 2-(6-Chlorobenzofuran-3-yl)-N-(5-methylthiazol-2-yl)acetamide]
10 to 100 µM | Cc1cnc(NC(=O)Cc2coc3cc4c(cc23)CCC4)o1 [Example 17, 2-(6,7-Dihydro-5H-cyclopenta[f]benzofuran-3-yl)-N-(5-methyloxazol-2-yl)acetamide]
10 to 100 µM | NC(=O)c1cnc(NC(=O)Cc2coc3cc4c(cc23)CCC4)s1 [Example 18, 2-[[2-(6,7-Dihydro-5H-cyclopenta[f]benzofuran-3-yl)acetyl]amino]thiazole-5-carboxamide]
10 to 100 µM | CC(=O)NCc1ccc(-c2csc(NC(=O)Cc3coc4cc5c(cc34)CCC5)n2)o1 [Example 19, N-[4-[5-(Acetamidomethyl)-2-furyl]thiazol-2-yl]-2-(6,7-dihydro-5H-cyclopenta[f]benzofuran-3-yl)acetamide]
10 to 100 µM | CCc1ccc2c(CC(=O)Nc3nccs3)coc2c1 [Example 20, 2-(6-Ethylbenzofuran-3-yl)-N-thiazol-2-yl-acetamide]
0.01 to 10 µM | Cc1c[nH]c(NC(=O)Cc2coc3cc4c(cc23)CCC4)n1 [Example 23, 2-(6,7-dihydro-5H-cyclopenta[f]benzofuran-3-yl)-N-(5-methyl-1H-imidazol-2-yl)acetamide]
0.01 to 10 µM | CC(=O)c1csc(NC(=O)Cc2coc3cc(C)ccc23)n1 [Example 24, N-(4-Acetylthiazol-2-yl)-2-(6-methylbenzofuran-3-yl)acetamide]
0.01 to 10 µM | COc1ccc2c(CC(=O)Nc3nc(-c4ccc5c(c4)CCC(=O)N5)cs3)coc2c1 [Example 29, 2-(6-Methoxybenzofuran-3-yl)-N-[4-(2-oxo-3,4-dihydro-1H-quinolin-6-yl)thiazol-2-yl]acetamide]
0.01 to 10 µM | COc1ccc2nc(NC(=O)Cc3coc4cc5c(cc34)CCC5)sc2c1 [Example 32, 2-(6,7-Dihydro-5H-cyclopenta[f]benzofuran-3-yl)-N-(6-methoxy-1,3-benzothiazol-2-yl)acetamide]
0.01 to 10 µM | Cc1ccc2c(CC(=O)Nc3nc(C)cs3)coc2c1 [Example 33, 2-(6-Methylbenzofuran-3-yl)-N-(4-methylthiazol-2-yl)acetamide]
0.01 to 10 µM | Cc1cnc(NC(=O)Cc2coc3cc4c(cc23)OCO4)s1 [Example 34, 2-Furo[3,2-f][1,3]benzodioxol-7-yl-N-(5-methylthiazol-2-yl)acetamide]
0.01 to 10 µM | CCc1ccc2c(CC(=O)Nc3nc(C)cs3)coc2c1 [Example 35, 2-(6-Ethylbenzofuran-3-yl)-N-(4-methylthiazol-2-yl)acetamide]
0.01 to 10 µM | Cc1ccc2c(CC(=O)Nc3nc(-c4ccc(C)o4)cs3)coc2c1 [Example 36, 2-(6-Methylbenzofuran-3-yl)-N-[4-(5-methyl-2-furyl)thiazol-2-yl]acetamide]
0.01 to 10 µM | O=C(Cc1coc2cc(Cl)ccc12)Nc1ncc(C(F)(F)F)[nH]1 [Example 38, 2-(6-Chlorobenzofuran-3-yl)-N-[5-(trifluoromethyl)-1H-imidazol-2-yl]acetamide]
